In patent US5278052A, “Process for the simultaneous production of benanomicins A and B” (Zaidan Hojin Biseibutsu Kagaku Kenkyu Kai, priority 1987, dated 1994):
In brackets after ≈: the same amount, converted by molar mass. Where a name gives a salt, the structure may show the parent alone. Read-outs that look alike come from different tables or passages of the source.

How the values were obtained:
[1] = tested on: Trichophyton mentagrophytes (883); test: MIC by standard serial dilution method (fungi); type: cell-based; settings: dexylosylbenanomicin B as hydrochloride
[2] = tested on: Candida albicans; test: therapeutic effect on experimental Candida infection in mice; settings: 3 times (0, 6, 24 h)
[3] = tested on: Klebsiella pneumoniae PCI602; test: MIC by standard serial dilution method (bacteria)
[4] = tested on: Candida krusei F-5; test: MIC by standard serial dilution method (fungi); type: cell-based; settings: Pichia kudriavzevii, F5, dexylosylbenanomicin B as hydrochloride
[5] = tested on: Pyricularia oryzae; test: microbe, parasite or virus in culture; type: cell-based
[6] = Solubility
[7] = tested on: Xanthomonas citri; test: MIC by standard serial dilution method; type: cell-based
[8] = in vivo; settings: mouse, iv
[9] = tested on: Candida albicans 3147; test: MIC by standard serial dilution method (fungi); type: cell-based; settings: dexylosylbenanomicin B as hydrochloride
[10] = tested on: Candida pseudotropicalis F-2; test: MIC by standard serial dilution method (fungi); type: cell-based; settings: Kluyveromyces marxianus, F2
[11] = tested on: Saccharomyces cerevisiae F-7; test: MIC by standard serial dilution method (fungi); type: cell-based; settings: F7, dexylosylbenanomicin B as hydrochloride
[12] = tested on: Shigella dysenteriae JS11910; test: MIC by standard serial dilution method (bacteria)
[13] = tested on: various kinds of fungi; test: antifungal activity, summary of Table 2; type: cell-based; settings: as revealed from Table 2
From the text: 4. Antibacterial and antifungal activities of benanomicin A, benanomicin B and dexylosylbenanomicn B (as the hydrochloride) are described below.

[14] = tested on: Proteus vulgaris OX19; test: MIC by standard serial dilution method (bacteria)
[15] = tested on: Mycobacterium smegmatis ATCC607; test: MIC by standard serial dilution method (bacteria); settings: Mycolicibacterium smegmatis
[16] = tested on: Micrococcus luteus FDA16; test: MIC by standard serial dilution method (bacteria)
[17] = tested on: Aspergillus niger; test: MIC by standard serial dilution method (fungi); type: cell-based; settings: dexylosylbenanomicin B as hydrochloride
[18] = tested on: Candida tropicalis F-1; test: MIC by standard serial dilution method (fungi); type: cell-based; settings: F1, dexylosylbenanomicin B as hydrochloride
[19] = tested on: Candida Yu-1200; test: MIC by standard serial dilution method (fungi); type: cell-based; settings: YU1200, dexylosylbenanomicin B as hydrochloride
[20] = tested on: Salmonella typhi T-63; test: MIC by standard serial dilution method (bacteria); settings: Salmonella enterica
[21] = tested on: Corynebacterium bovis 1810; test: MIC by standard serial dilution method (bacteria)
[22] = tested on: Escherichia coli NIHJ; test: MIC by standard serial dilution method (bacteria)
[23] = tested on: Jcl:ICR-strain mice; settings: mouse, in vivo, iv, 600 mg/kg
[24] = tested on: Staphylococcus aureus FDA209P; test: MIC by standard serial dilution method (bacteria)
[25] = tested on: Bacillus subtilis PCI219; test: MIC by standard serial dilution method (bacteria)
[26] = tested on: Xanthomonas oryzae; test: microbe, parasite or virus in culture; type: cell-based
[27] = tested on: Cochliobolus miyabeanus; test: MIC by standard serial dilution method (fungi); type: cell-based; settings: Bipolaris oryzae
[28] = tested on: Staphylococcus aureus Smith; test: MIC by standard serial dilution method (bacteria)
[29] = tested on: Trichophyton asteroides 429; test: MIC by standard serial dilution method (fungi); type: cell-based; settings: dexylosylbenanomicin B as hydrochloride
[30] = tested on: Pellicularia sasakii; test: MIC by standard serial dilution method (fungi); type: cell-based; settings: dexylosylbenanomicin B as hydrochloride
[31] = tested on: Cryptococcus neoformans F-10; test: MIC by standard serial dilution method (fungi); type: cell-based
[32] = tested on: Pseudomonas aeruginosa A3; test: MIC by standard serial dilution method (bacteria)
[33] = tested on: Escherichia coli K-12; test: MIC by standard serial dilution method (bacteria); settings: K12
[34] = Distinction between the basic, acidic and neutral natures of substance; type: physicochemical
[35] = Candida pseudotropicalis F-2, dexylosylbenanomicin B as hydrochloride, read-out: MIC

COc1cc(O)c2c(c1)C(=O)c1c(cc3c(c1O)-c1c(cc(C)c(C(=O)N[C@H](C)C(=O)O)c1O)C(O[C@@H]1O[C@H](C)[C@H](O)[C@H](O[C@@H]4OC[C@@H](O)[C@H](O)[C@H]4O)[C@H]1O)C3O)C2=O (stereo partly shown) [Benanomicin A]
MIC [1]: 50 µg/mL (≈ 60.4 µM) | Number of surviving mice ([2]; 0.2 mg/mouse, subcutaneous): 0/5 | Percent of the number of surviving mice against the tested mice ([2]; 0.2 mg/mouse, subcutaneous): 0% | Number of surviving mice ([2]; 0.3 mg/mouse, subcutaneous): 2/5 | Percent of the number of surviving mice against the tested mice ([2]; 0.3 mg/mouse, subcutaneous): 40% | Number of surviving mice ([2]; 0.4 mg/mouse, subcutaneous): 1/5 | Percent of the number of surviving mice against the tested mice ([2]; 0.4 mg/mouse, subcutaneous): 20% | Number of surviving mice ([2]; 0.8 mg/mouse, subcutaneous): 5/5 | Percent of the number of surviving mice against the tested mice ([2]; 0.8 mg/mouse, subcutaneous): 100% | Number of surviving mice ([2]; 1.5 mg/mouse, oral): 0/5 | Percent of the number of surviving mice against the tested mice ([2]; 1.5 mg/mouse, oral): 0% | Number of surviving mice ([2]; 3.0 mg/mouse, oral): 0/5 | Percent of the number of surviving mice against the tested mice ([2]; 3.0 mg/mouse, oral): 0% | Number of surviving mice ([2]; 6.0 mg/mouse, oral): 3/5 | Percent of the number of surviving mice against the tested mice ([2]; 6.0 mg/mouse, oral): 60% | Number of surviving mice ([2]; 12.0 mg/mouse, oral): 3/5 | Percent of the number of surviving mice against the tested mice ([2]; 12.0 mg/mouse, oral): 60% | MIC [3]: > 100 µg/mL | MIC [4]: 6.25 µg/mL (≈ 7.55 µM) | MIC [5]: 25 µg/mL (≈ 30.2 µM) | Solubility ([6]; acetone): Only sparingly soluble | Solubility ([6]; alkaline water): soluble | Solubility ([6]; chloroform): Only sparingly soluble | Solubility ([6]; dimethylformamide): soluble | Solubility ([6]; dimethylsulfoxide): soluble | Solubility ([6]; ethyl acetate): Only sparingly soluble | Solubility ([6]; methanol): Only sparingly soluble | Solubility ([6]; water): insoluble | MIC [7]: > 100 µg/mL | MTD [8]: 600 mg/kg | MIC [9]: 25 µg/mL (≈ 30.2 µM) | MIC [10, 35]: 6.25 µg/mL (≈ 7.55 µM) | MIC [11]: 6.25 µg/mL (≈ 7.55 µM) | MIC [12]: > 50 µg/mL | antifungal activities against various kinds of fungi [13]: substantial antifungal activities | MIC [14]: > 100 µg/mL | MIC [15]: > 100 µg/mL | MIC [16]: 12.5 µg/mL (≈ 15.1 µM) | MIC [17]: 50 µg/mL (≈ 60.4 µM) | MIC [18]: 25 µg/mL (≈ 30.2 µM) | MIC [19]: 12.5 µg/mL (≈ 15.1 µM) | MIC [20]: > 100 µg/mL | MIC [21]: 12.5 µg/mL (≈ 15.1 µM) | MIC [22]: > 100 µg/mL | mice killed [23]: none of the mice was killed | MIC [24]: 100 µg/mL (≈ 121 µM) | MIC [25]: > 100 µg/mL | MIC [26]: > 100 µg/mL | MIC [27]: > 100 µg/mL | MIC [28]: > 100 µg/mL | MIC [29]: 50 µg/mL (≈ 60.4 µM) | MIC [30]: 25 µg/mL (≈ 30.2 µM) | MIC ([31]; F10, read-out: MIC): 3.12 µg/mL (≈ 3.77 µM) | MIC [32]: > 50 µg/mL | MIC [33]: > 100 µg/mL | Distinction between the basic, acidic and neutral natures of substance [34]: Acidic substance

COc1cc(O)c2c(c1)C(=O)c1c(cc3c(c1O)-c1c(cc(C)c(C(=O)N[C@H](C)C(=O)O)c1O)[C@H](O[C@@H]1O[C@H](C)[C@H](N)[C@H](O[C@@H]4OC[C@@H](O)[C@H](O)[C@H]4O)[C@H]1O)[C@H]3O)C2=O [Benanomicin B hydrochloride]
Solubility ([6]; acetone): Only sparingly soluble | Solubility ([6]; chloroform): Only sparingly soluble | Solubility ([6]; dimethylformamide): soluble | Solubility ([6]; dimethylsulfoxide): soluble | Solubility ([6]; ethyl acetate): Only sparingly soluble | Solubility ([6]; methanol): soluble | Solubility ([6]; water): soluble | Distinction between the basic, acidic and neutral natures of substance [34]: Amphoteric substance

COc1cc(O)c2c(c1)C(=O)c1c(cc3c(c1O)-c1c(cc(C)c(C(=O)N[C@H](C)C(=O)O)c1O)C(O[C@@H]1O[C@H](C)[C@H](N)[C@H](O[C@@H]4OC[C@@H](O)[C@H](O)[C@H]4O)[C@H]1O)C3O)C2=O (stereo partly shown) [Benanomicin B]
MIC [1]: 25 µg/mL (≈ 30.2 µM) | MIC [3]: > 100 µg/mL | MIC [4]: 6.25 µg/mL (≈ 7.56 µM) | MIC [5]: 50 µg/mL (≈ 60.5 µM) | MIC [7]: > 100 µg/mL | MTD [8]: 100 mg/kg | MIC [9]: 25 µg/mL (≈ 30.2 µM) | MIC [10, 35]: 6.25 µg/mL (≈ 7.56 µM) | MIC [11]: 12.5 µg/mL (≈ 15.1 µM) | MIC [12]: > 100 µg/mL | antifungal activities against various kinds of fungi [13]: substantial antifungal activities | MIC [14]: > 100 µg/mL | MIC [15]: > 100 µg/mL | MIC [16]: 3.12 µg/mL (≈ 3.77 µM) | MIC [17]: > 100 µg/mL | MIC [18]: > 100 µg/mL | MIC [19]: 12.5 µg/mL (≈ 15.1 µM) | MIC [20]: > 100 µg/mL | MIC [21]: 3.12 µg/mL (≈ 3.77 µM) | MIC [22]: > 100 µg/mL | MIC [24]: > 100 µg/mL | MIC [25]: > 100 µg/mL | MIC [26]: > 100 µg/mL | MIC [27]: > 100 µg/mL | MIC [28]: > 100 µg/mL | MIC [29]: 25 µg/mL (≈ 30.2 µM) | MIC [30]: 50 µg/mL (≈ 60.5 µM) | MIC ([31]; F10, read-out: MIC): 1.56 µg/mL (≈ 1.89 µM) | MIC [32]: > 100 µg/mL | MIC [33]: > 100 µg/mL

COc1cc(O)c2c(c1)C(=O)c1c(cc3c(c1O)-c1c(cc(C)c(C(=O)N[C@H](C)C(=O)O)c1O)C(O[C@@H]1O[C@H](C)[C@H](N)[C@H](O)[C@H]1O)C3O)C2=O (stereo partly shown) [Dexylosylbenanomicin B hydrochloride]
Distinction between the basic, acidic and neutral natures of substance [34]: Amphoteric substance

COc1cc(O)c2c(c1)C(=O)c1c(cc3c(c1O)-c1c(cc(C)c(C(=O)N[C@H](C)C(=O)O)c1O)C(O[C@@H]1O[C@H](C)[C@H](N)[C@H](O)[C@H]1O)C3O)C2=O (stereo partly shown) [Dexylosylbenanomicin B]
MIC [1]: 50 µg/mL (≈ 72 µM) | MIC [4]: 12.5 µg/mL (≈ 18 µM) | MIC [5]: 25 µg/mL (≈ 36 µM) | MIC [7]: 100 µg/mL (≈ 144 µM) | MTD [8]: 100 mg/kg | MIC [9]: 6.25 µg/mL (≈ 9 µM) | MIC [10]: 3.13 µg/mL (≈ 4.51 µM) | MIC [11]: 6.25 µg/mL (≈ 9 µM) | antifungal activities against various kinds of fungi [13]: substantial antifungal activities | MIC [17]: 25 µg/mL (≈ 36 µM) | MIC [18]: 6.25 µg/mL (≈ 9 µM) | MIC [19]: 6.25 µg/mL (≈ 9 µM) | MIC [26]: 100 µg/mL (≈ 144 µM) | MIC [27]: 50 µg/mL (≈ 72 µM) | MIC [29]: 50 µg/mL (≈ 72 µM) | MIC [30]: 25 µg/mL (≈ 36 µM) | MIC ([31]; F10): 3.13 µg/mL (≈ 4.51 µM)
